Tests used:
[1] = tested on: human surgical skin (skin resident immune cells), LPS; assay: skin Resident Immune Cell Assay (sRICA), topical screening, TNFα protein expression; type: cell-based; settings: mean TNFα level in LPS treated samples set to 100%
Description: A skin Resident Immune Cell Assay (sRICA) was used to test compounds for reduction of inflammation. In this model, human surgical skin waste was cultured in a transwell system, with the dermis in contact with cell culture media and the stratum corneum exposed to air. To perform the assay, each human skin sample was defatted and dermatomed to 750 μm. Next, 8 mm punch biopsies were obtained and placed in a membrane transwell. The transwells were inserted into culture wells with complete media, and a cocktail of cytokines and antibodies were added to promote skin resident immune cell polarization. The transwells were treated with LPS as a positive control, a vehicle as a negative control, and various dual IRAK/TrkA inhibitors. TNFα protein expression was measured and the mean TNFa protein level in the LPS treated samples was set to 100%.
Overall results for all tested compounds are summarized below in Table 1. Results are expressed as a percentage of TNFα expression relative to the LPS treated sample.

[2] = tested on: rosacea lesional (LS) skin; assay: RNAseq of treated lesional papulopustular rosacea biopsies; type: cell-based, human; settings: LS rosacea biopsy, 24 hours culture, 1 μM and 0.5 μM
Description: Five patients with mild-moderate, untreated, papulopustular rosacea (PPR) were enrolled and completed the study. Each patient donated 3 punch biopsies: 1 non-lesional (NL) and 2 lesional (LS) papules. Each biopsy was bisected, resulting in a total of 6 biopsy pieces. NL tissue was left untreated. […] Tissue was cultured in media at 37 C, 5% CO2 for 24 hours. After culture, the tissue was submerged in RNAlater for subsequent RNA isolation and RNA seq, and conditioned cell media was collected into 2×500 ul aliquots for proteomic analysis.
MMP-1 results are shown in FIG. 4A (RNAseq) and FIG. 4B (OLink); CXCL5 results are shown in FIG. 5A (RNAseq) and FIG. 5B (OLink); and IL-1(3 results are shown in FIG. 6A (RNAseq) and FIG. 6B (OLink).

[3] = tested on: rosacea lesional (LS) skin; assay: MesoScale Discovery (MSD) immunoassay of treated lesional papulopustular rosacea biopsies; type: cell-based, human
Description: (§1) Five patients with mild-moderate, untreated, papulopustular rosacea (PPR) were enrolled and completed the study. Each patient donated 3 punch biopsies: 1 non-lesional (NL) and 2 lesional (LS) papules. Each biopsy was bisected, resulting in a total of 6 biopsy pieces. NL tissue was left untreated. LS tissue was either left untreated (vehicle), treated with a dual IRAK/TrkA inhibitor according to the present disclosure (1 uM or […]) or clobetasol (1 uM). Tissue was cultured in media at 37 C, 5% CO2 for 24 hours. After culture, the tissue was submerged in RNAlater for subsequent RNA isolation and RNA seq, and conditioned cell media was collected into 2×500 ul aliquots for proteomic analysis.
Next, the protein expression results obtained using the OLink platform were verified using MesoScale Discovery (MSD). MSD involves coating of carbon electrodes with multiple capture antibodies each coated onto discrete spots in the same plate, and is a multiplex platform that allows for absolute quantification of protein expression, as measured in pg/mL. For MSD quantification, 150 μl of conditioned cell media was analyzed using MSD platform using the human Cytokine 30-plex kit:
The protein expression analysis was repeated using the MSD platform.

[4] = tested on: rosacea lesional (LS) skin; assay: OLink proteomics of treated lesional papulopustular rosacea biopsies; type: cell-based, human; settings: LS rosacea biopsy
Description: as §1
Proteomic analysis included use of the OLink platform. OLink proteomics, includes immunoassay, extension, preamplification, and detection by microfluidic qPCR, and has a high multiplex ability, but not absolute quantification of protein (only relative expression).
For the OLink proteomics platform, 40 μl of conditioned cell media was sent to OLINK proteomics for evaluation on their human Inflammation Panel (92 proteins):
Protein expression was measured from NL samples, untreated LS samples, and LS samples treated with the compound of Formula (Ia) at 1 μM, the compound of Formula (Ia) at 0.5 μM, or clobetasol at 1 μM. […] CXCL1, β-NGF, LIF, TGF-alpha, IL-8, and IL-6 are all proteins that have reduced expression in NL compared to LS samples.

[5] = 24 hours following treatment, 1 μM and 0.5 μM

C=C(CC1=CC(C)C=C1C1CCC(CCC)C1=C)C1=CCC(c2cccc(CCC(C)(C)C)c2)=C1 (centres unmarked)
TNFα Protein Expression (% relative to positive control) [1]: 64.03%

Cn1cc(NC(=O)c2coc(-c3ccnc(NCC(F)F)c3)n2)c(N2CCN(CCO)C2=O)n1
TNFα Protein Expression (% relative to positive control) [1]: 72.75%

CC1C=C(CC(=O)c2coc(-c3ccnc(NCC(F)(F)F)c3)c2)C(C2CC(C)[C@H](C)C2=O)=C1 (some centres unmarked)
TNFα Protein Expression (% relative to positive control) [1]: 67.49%

Cn1cc(NC(=O)c2coc(-c3ccnc(NCC(F)(F)F)c3)n2)c(N2CCNC2=O)n1
TNFα Protein Expression (% relative to positive control) [1]: 59.13%

C[C@H]1CCN(c2nn(C)cc2NC(=O)c2coc(-c3ccnc(NCC(F)(F)F)c3)n2)C1=O
TNFα Protein Expression (% relative to positive control) [1]: 92.45%

Cn1cc(NC(=O)c2coc(-c3ccnc(NCC4CC4)c3)n2)c(N2CCN(CCO)C2=O)n1
TNFα Protein Expression (% relative to positive control) [1]: 74.41%

CC(C)N1CCN(c2nn(C)cc2NC(=O)c2coc(-c3ccnc(NCC(F)(F)F)c3)n2)C1=O
TNFα Protein Expression (% relative to positive control) [1]: 90.44%

CN(C)CC1CN(c2nn(C)cc2NC(=O)c2coc(-c3ccnc(NCC(F)(F)F)c3)n2)C(=O)C1(C)C (centres unmarked)
TNFα Protein Expression (% relative to positive control) [1]: 86.94%

CC(C)CN1CCN(c2nn(C)cc2NC(=O)c2coc(-c3ccnc(NCC(F)(F)F)c3)n2)C1=O
TNFα Protein Expression (% relative to positive control) [1]: 89.24%

Cn1cc(NC(=O)c2coc(-c3ccnc(NCC(F)(F)F)c3)n2)c(N2CC(CNC3CC3)C(C)(C)C2=O)n1 (centres unmarked)
TNFα Protein Expression (% relative to positive control) [1]: 72.95%

CC1(C)CCN(c2nn(C3COC3)cc2NC(=O)c2coc(-c3ccnc(NCC(F)(F)F)c3)n2)C1=O
TNFα Protein Expression (% relative to positive control) [1]: 97.84%

Cn1cc(NC(=O)c2coc(-c3ccnc(NCC(F)(F)F)c3)n2)c(N2CCN(CCO)C2=O)n1 [Formula (Ia)]
CXCL5 RNA expression (RNAseq) [2]: significantly downregulated | IL-1β RNA expression (RNAseq) [2]: significantly downregulated | MMP-1 RNA expression (RNAseq) [2]: significantly downregulated | protein expression profile (MSD) ([3]; compared with NL and LS profiles): more similar to the NL profile versus the LS profile | IL-10 protein expression (MSD) ([3]; p=0.002): decreased expression | IL-8 protein expression (MSD) ([3]; p=0.056): decreased expression | MCP-1 protein expression (MSD) ([3]; p=0.09): decreased expression | IL-4 protein expression (MSD) ([3]; p=0.12): decreased expression | IL-6 protein expression (MSD) ([3]; p=0.13): decreased expression | IL-5 protein expression (MSD) ([3]; p=0.2): decreased expression | CXCL6 protein expression (OLink) ([4]; 24 hours following treatment): decreased expression | IL-24 protein expression (OLink) ([4]; 24 hours following treatment): decreased expression | MCP-1 protein expression (OLink) ([4]; 24 hours following treatment): decreased expression | NRTN protein expression (OLink) ([4]; 24 hours following treatment): decreased expression | CXCL1 protein expression (OLink) [4, 5]: statistically significant decrease in expression | IL-6 protein expression (OLink) [4, 5]: statistically significant decrease in expression | IL-8 protein expression (OLink) [4, 5]: statistically significant decrease in expression | LIF protein expression (OLink) [4, 5]: statistically significant decrease in expression | TGF-alpha protein expression (OLink) [4, 5]: statistically significant decrease in expression | β NGF protein expression (OLink) [4, 5]: statistically significant decrease in expression | CXCL5 protein expression (OLink) ([4]; 24 hours, 1 μM and 0.5 μM): downregulated | MMP-1 protein expression (OLink) ([4]; 24 hours, 1 μM and 0.5 μM): downregulated

CNCC1CN(c2nn(C)cc2NC(=O)c2coc(-c3ccnc(NCC(F)(F)F)c3)n2)C(=O)C1(C)C (centres unmarked) [drawing 29]
TNFα Protein Expression (% relative to positive control) [1]: 92.45%

CNCC1CN(c2nn(C)cc2NC(=O)c2coc(-c3ccnc(NCC(F)(F)F)c3)n2)C(=O)C1(C)C (centres unmarked) [drawing 30]
TNFα Protein Expression (% relative to positive control) [1]: 93.64%

— patent publication US20230125380A1, “Topical Compositions Comprising IRAK4 Inhibitors for Use in Treating Dermatological Conditions Characterised by Inflammation” (Dermira, Inc., priority 2019, published 2023)
